Molecular target: T1, ligand binding domain of human RORγ (A262-S507) (Homo sapiens, UniProt P51449)
T1 construct: made in house; host or cells: E. coli
T1 sequence (P51449 262-507): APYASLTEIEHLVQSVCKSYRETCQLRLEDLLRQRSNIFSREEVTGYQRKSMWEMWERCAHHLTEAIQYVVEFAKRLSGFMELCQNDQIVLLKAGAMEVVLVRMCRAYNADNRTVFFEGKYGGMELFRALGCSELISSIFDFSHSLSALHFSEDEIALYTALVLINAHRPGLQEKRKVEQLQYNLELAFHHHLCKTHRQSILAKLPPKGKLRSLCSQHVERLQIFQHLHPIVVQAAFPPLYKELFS
Assay: General RORγ SPA binding assay (competition with [3H]25-hydroxycholesterol)
Conditions: RORγ SPA binding assay, inhibition of [3H]25-hydroxycholesterol binding; read-out: IC50
Outline: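 Step one: compound meets 50 nM nickel-purified, His-tagged protein from E. coli for 15 min at room temperature (PBS, 0.5% fatty acid free BSA). Step two: radioligand is added for another 15 min. Step three: SPA beads are added for 30 min before scintillation reading and IC50 fitting.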

SMILES | IC50 [nM]
C/C(=N\Oc1cc(C)nc(C(F)(F)F)n1)c1cnc(C)nc1C1CCN(C(=O)Nc2c(F)cccc2F)CC1 [Compound B42, N-(2,6-difluorophenyl)-4-{2-methyl-5-[(1E)-N-{[6-methyl-2-(trifluoromethyl)pyrimidin-4-yl]oxy}ethanimidoyl]pyrimidin-4-yl}piperidine-1-carboxamide] | 151
C/C(=N\Oc1cccc(C(F)(F)F)c1)c1cnc(C)nc1C1CCN(C(=O)Nc2c(F)cccc2F)CC1 [Compound B43, N-(2,6-Difluorophenyl)-4-{2-methyl-5-[(1E)-N-{[3-(trifluoromethyl)phenyl]oxy}ethanimidoyl]pyrimidin-4-yl}piperidine-1-carboxamide] | 13.5
C/C(=N/Oc1cccc(C(F)(F)F)c1)c1cnc(C)nc1C1CCN(C(=O)Nc2c(F)cccc2F)CC1 [Compound B44, N-(2,6-Difluorophenyl)-4-{2-methyl-5-[(1Z)—N-{[3-(trifluoromethyl)phenyl]oxy}ethanimidoyl]pyrimidin-4-yl}piperidine-1-carboxamide] | 84.9
C/C(=N\Oc1cccc(C(F)(F)F)c1)c1cnc(C)nc1C1CCN(C(=O)Nc2c(F)cccc2C(F)(F)F)CC1 [Compound B45, N-[2-fluoro-6-(trifluoromethyl)phenyl]-4-{2-methyl-5-[(1E)-N-{[3-(trifluoromethyl)phenyl]oxy}ethanimidoyl]pyrimidin-4-yl}piperidine-1-carboxamide] | 8
Cc1nc(C)c(/C=N/Oc2cccc(C(F)(F)F)c2)c(C2CCN(C(=O)Nc3c(F)cccc3F)CC2)n1 [Compound B46, N-(2,6-Difluorophenyl)-4-{2,6-dimethyl-5-[(E)-({[3-(trifluoromethyl)phenyl]oxy}imino)methyl]pyrimidin-4-yl}piperidine-1-carboxamide] | 106
C/C(=N\Oc1cccc(C(F)(F)F)c1)c1cnc(C)nc1C1CCN(C(=O)Nc2c(F)cccc2F)C(C)C1 (stereo not drawn) [Compound B47, N-(2,6-Difluorophenyl)-2-methyl-4-{2-methyl-5-[(1E)-N-{[3-(trifluoromethyl)phenyl]oxy}ethanimidoyl]pyrimidin-4-yl}piperidine-1-carboxamide] | 76.4
CCC/C(=N\Oc1cccc(C(F)(F)F)c1)c1c(C)nc(C)nc1C1CCN(C(=O)Cc2c(F)cccc2F)CC1 [Compound B48, (1E)-1-(4-{1-[(2,6-difluorophenyl)acetyl]piperidin-4-yl}-2,6-dimethylpyrimidin-5-yl)butan-1-one O-[3-(trifluoromethyl)phenyl]oxime] | 241
CCC/C(=N/Oc1cccc(C(F)(F)F)c1)c1c(C)nc(C)nc1C1CCN(C(=O)Cc2c(F)cccc2F)CC1 [Compound B49, (1Z)-1-(4-{1-[(2,6-difluorophenyl)acetyl]piperidin-4-yl}-2,6-dimethylpyrimidin-5-yl)butan-1-one O-[3-(trifluoromethyl)phenyl]oxime] | 1970
CSc1ncc(/C(C)=N/Oc2cccc(C(F)(F)F)c2)c(C2CCN(C(=O)Nc3c(F)cccc3F)CC2)n1 [Compound B50, N-(2,6-Difluorophenyl)-4-{2-(methylthio)-5-[(1E)-N-{[3-(trifluoromethyl)phenyl]oxy}ethanimidoyl]pyrimidin-4-yl}piperidine-1-carboxamide] | 445
C/C(=N\Oc1cccc(C(F)(F)F)c1)c1cnc(N)nc1C1CCN(C(=O)Nc2c(F)cccc2F)CC1 [Compound B51, 4-{2-Amino-5-[(1E)-N-{[3-(trifluoromethyl)phenyl]oxy}ethanimidoyl]pyrimidin-4-yl}-N-(2,6-difluorophenyl)piperidine-1-carboxamide] | 8.6
C/C(=N\Oc1ccnc(C(F)(F)F)c1)c1cnc(N)nc1C1CCN(C(=O)Nc2c(F)cccc2F)CC1 [Compound B53, 4-{2-amino-5-[(1E)-N-{[2-(trifluoromethyl)pyridin-4-yl]oxy}ethanimidoyl]pyrimidin-4-yl}-N-(2,6-difluorophenyl)piperidine-1-carboxamide] | 35.1
C/C(=N\Oc1ccnc(C(F)(F)F)n1)c1cnc(N)nc1C1CCN(C(=O)Nc2c(F)cccc2F)CC1 [Compound B54, 4-{2-Amino-5-[(1E)-N-{[2-(trifluoromethyl)pyrimidin-4-yl]oxy}ethanimidoyl]pyrimidin-4-yl}-N-(2,6-difluorophenyl)piperidine-1-carboxamide] | 168
C/C(=N\Oc1cc(Cl)nc(C(F)(F)F)c1)c1cnc(N)nc1C1CCN(C(=O)Nc2c(F)cccc2F)CC1 [Compound B55, 4-{2-Amino-5-[(1E)-N-{[2-chloro-6-(trifluoromethyl)pyridin-4-yl]oxy}ethanimidoyl]pyrimidin-4-yl}-N-(2,6-difluorophenyl)piperidine-1-carboxamide] | 5.8
C/C(=N\Oc1cc(F)nc(F)c1)c1cnc(N)nc1C1CCN(C(=O)Nc2c(F)cccc2F)CC1 [Compound B56, 4-(2-Amino-5-{(1E)-N-[(2,6-difluoropyridin-4-yl)oxy]ethanimidoyl}pyrimidin-4-yl)-N-(2,6-difluorophenyl)piperidine-1-carboxamide] | 31.8
C/C(=N/Oc1cc(F)nc(F)c1)c1cnc(N)nc1C1CCN(C(=O)Nc2c(F)cccc2F)CC1 [Compound B57, 4-(2-Amino-5-{(1Z)—N-[(2,6-difluoropyridin-4-yl)oxy]ethanimidoyl}pyrimidin-4-yl)-N-(2,6-difluorophenyl)piperidine-1-carboxamide] | 92.7
CSc1ncc(/C(C)=N/Oc2ccnc(Cl)c2)c(C2CCN(C(=O)Nc3c(F)cccc3F)CC2)n1 [Compound B58, 4-[5-{(1E)-N-[(2-Chloropyridin-4-yl)oxy]ethanimidoyl}-2-(methylthio)pyrimidin-4-yl]-N-(2,6-difluorophenyl)piperidine-1-carboxamide] | 4090
C/C(=N\Oc1ccnc(Cl)c1)c1cnc(N)nc1C1CCN(C(=O)Nc2c(F)cccc2F)CC1 [Compound B59, 4-(2-Amino-5-{(1E)-N-[(2-chloropyridin-4-yl)oxy]ethanimidoyl}pyrimidin-4-yl)-N-(2,6-difluorophenyl)piperidine-1-carboxamide] | 49.1
CCNc1ncc(/C(C)=N/Oc2ccnc(C(F)(F)F)c2)c(C2CCN(C(=O)Nc3c(F)cccc3F)CC2)n1 [Compound B60, N-(2,6-Difluorophenyl)-4-{2-(ethylamino)-5-[(1E)-N-{[2-(trifluoromethyl)pyridin-4-yl]oxy}ethanimidoyl]pyrimidin-4-yl}piperidine-1-carboxamide] | 115

Next, values leading:

IC50 [nM] | SMILES
367 | C/C(=N\Oc1ccnc(C(F)(F)F)c1)c1cnc(N(C)C)nc1C1CCN(C(=O)Nc2c(F)cccc2F)CC1 [Compound B61, N-(2,6-Difluorophenyl)-4-{2-(dimethylamino)-5-[(1E)-N-{[2-(trifluoromethyl)pyridin-4-yl]oxy}ethanimidoyl]pyrimidin-4-yl}piperidine-1-carboxamide]
114 | Cc1nc(C)c(-c2nc(-c3cccc(C(F)(F)F)c3)no2)c(C2CCN(C(=O)Cc3c(F)cccc3F)CC2)n1 [Compound C1, 4-{1-[(2,6-Difluorophenyl)acetyl]piperidin-4-yl}-2,6-dimethyl-5-{3-[3-(trifluoromethyl)phenyl]-1,2,4-oxadiazol-5-yl}pyrimidine]
337 | Cc1nc(C)c(-c2nc(-c3ccc(F)cc3)no2)c(C2CCN(C(=O)Cc3c(F)cccc3F)CC2)n1 [Compound C2, 2-(2,6-difluorophenyl)-1-(4-(5-(3-(4-fluorophenyl)-1,2,4-oxadiazol-5-yl)-2,6-dimethylpyrimidin-4-yl)piperidin-1-yl)ethanone]
606 | Cc1nc(C)c(-c2nc(Cc3ccc(F)cc3)no2)c(C2CCN(C(=O)Cc3c(F)cccc3F)CC2)n1 [Compound C3, 2-(2,6-difluorophenyl)-1-(4-(5-(3-(4-fluorobenzyl)-1,2,4-oxadiazol-5-yl)-2,6-dimethylpyrimidin-4-yl)piperidin-1-yl)ethanone]
620 | Cc1nc(C)c(-c2nc(-c3cccc(Cl)c3)no2)c(C2CCN(C(=O)Cc3c(F)cccc3F)CC2)n1 [Compound C4, 1-(4-(5-(3-(3-chlorophenyl)-1,2,4-oxadiazol-5-yl)-2,6-dimethylpyrimidin-4-yl)piperidin-1-yl)-2-(2,6-difluorophenyl)ethanone]
6.3 | Cc1nc(C)c(-c2nnc(-c3ccnc(C(F)(F)F)n3)o2)c(C2CCN(C(=O)Cc3c(F)cccc3F)CC2)n1 [Compound C5, 4-{1-[(2,6-Difluorophenyl)acetyl]piperidin-4-yl}-2,6-dimethyl-5-{5-[2-(trifluoromethyl)pyrimidin-4-yl]-1,3,4-oxadiazol-2-yl}pyrimidine]
5.2 | Cc1nc(C)c(-c2nnc(-c3cccc(C(F)(F)F)n3)o2)c(C2CCN(C(=O)Cc3c(F)cccc3F)CC2)n1 [Compound C6, 2-(2,6-difluorophenyl)-1-(4-(2,6-dimethyl-5-(5-(6-(trifluoromethyl)pyridin-2-yl)-1,3,4-oxadiazol-2-yl)pyrimidin-4-yl)piperidin-1-yl)ethanone]
269 | Cc1cc(-c2nnc(-c3c(C)nc(C)nc3C3CCN(C(=O)Cc4c(F)cccc4F)CC3)o2)cc(Cl)n1 [Compound C19, 1-(4-(5-(5-(2-chloro-6-methylpyridin-4-yl)-1,3,4-oxadiazol-2-yl)-2,6-dimethylpyrimidin-4-yl)piperidin-1-yl)-2-(2,6-difluorophenyl)ethanone]
657 | Cc1nc(C)c(-c2nnc(-c3ccc(Cl)cn3)o2)c(C2CCN(C(=O)Cc3c(F)cccc3F)CC2)n1 [Compound C20, 1-(4-(5-(5-(5-chloropyridin-2-yl)-1,3,4-oxadiazol-2-yl)-2,6-dimethylpyrimidin-4-yl)piperidin-1-yl)-2-(2,6-difluorophenyl)ethanone]

Source: patent publication US10035790B2, “RORγ modulators” (BRISTOL-MYERS SQUIBB COMPANY, priority 2012, dated 2018)
